Where “and” joins values, the source holds several entries; their conditions need not be identical. Equal values may be shown once.
Tests used:
[1] = molecular target: T1, MIF (Homo sapiens, UniProt P14174); experiment: MIF degradation in HEK293 cells, western-blot; assay type: cell-based; design: endogenous in cells; details: 200 nM
T1 sequence (P14174 2-115 limits assumed): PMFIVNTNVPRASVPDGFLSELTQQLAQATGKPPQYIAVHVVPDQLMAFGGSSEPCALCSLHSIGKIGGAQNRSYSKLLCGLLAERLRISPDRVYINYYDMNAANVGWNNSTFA

[2] = molecular target: T1, MIF; experiment: MIF degradation in A549 cells, cell lysate-based ELISA; design: endogenous in cells; host or cells: A549 (ATCC CCL-185); details: A549 cells; for degradation [%] 2 μM: vs DMSO, mean±SD n=3
Procedure: In addition, A549 cells have been successfully used for assessing activity of cereblon ligand‐based PROTACs previously.[42] Therefore, A549 is a suitable cell line for evaluating the effect of our putative MIF‐directed PROTACs MD1 to MD12 on MIF protein levels. The reduction in MIF levels were monitored in A549 cells that were treated with two different PROTAC concentrations (20 and 2 μM) for 12 h in order to estimate the dose dependency, which is important for PROTACs because of the Hook effect.[35] The MIF levels in cell lysates were analyzed using an enzyme‐linked immunosorbent assay (ELISA).
S3. ELISA screening of MIF protein level on MIF-directed PROTACs
Cell culture. Human A549 lung cancer cells (ATCCCCL-185) or HEK293 kidney […]
containing 10% (v/v) fetal bovine serum (FBS), 100 U/mL penicillin/streptomycin […]
ELISA. 7×10^5 A549 cells per well were plated in 6-well plates. The next day, cells were treated with a solution of compounds or the vehicle for 12 h. Subsequently, the culture medium was removed and cells were washed twice with cold PBS and collected after trypsin (0.5 mL) degestion. Cells were then lyzed in lysis buffer (150 mM NaCl, 50 mM Hepes pH 7.5, 5 mM EDTA, 0.1% (w/v) NP40) containing protease inhibitor cocktail (Roche, #11836153001) and resuspended vigourously. The supernatant was collected after spinning down at 16 000g at 4 °C for 30 min. The total protein concentration was determined with PierceTM BCA protein assay kit ( ThermoFisher , #23225). The protein concentration was normalized between samples. The relative MIF levels from 1µg total protein were determined by ELISA with the human MIF DuoSet ELISA kit according to the instructions of the manufacturer (R&D systems, #DY289).
Figure S1. Screening of compounds for MIF degradation activity by cell lysate -based ELISA.
A549 cells were treated with compounds at (A) 20 or (B) 2 µM for 12 h. Data was normalized […]
(1 picture or pasted object on this page, not shown here)

[3] = molecular target: T1, MIF; experiment: MIF immunofluorescence staining, confocal microscopy; assay type: cell-based; design: endogenous in cells; host or cells: A549 (ATCC CCL-185); details: A549 cells, 1 μM, 12 hours
Source text: Since PROTACs are relatively large heterobifunctional molecules, the efficacy of these compounds may be limited by poor cell permeability.[47] In order to estimate the cellular uptake of PROTAC MD13, the intrinsic fluorescence properties of the pomalidomide part of MD13 were employed for visualization of its subcellular localization. […] In parallel, the subcellular localization of MIF and its decrease in situ upon MD13 treatment was visualized by confocal fluorescence microscopy using a fluorescent secondary antibody.
S5. Subcellular colocalization study
To visualize the intracellular location of MD13 and MIF protein, immunofluorescence staining was applied. A549 cells were seeded on glass coverslips in a 6-well plate at a density of 1x10^5 cells per well. After overnight incubation, cells were treated with 1 µM MD13 for 1 hour to study the internalization of MD13 or 12 hours to study the degradation of MIF protein.
The cells with 1-hour treatment were fixed with methanol before coverslips were mounted onto slides with anti-fading mounting medium with DAPI stain (Invitrogen, Waltham, MA. USA).
To visualize MIF protein, cells after 12-hour treatment were fixed with methanol and then unspecific binding was blocked with blocking buffer (1% BSA, 22.52 mg/mL glycine in 0.1%PBST). […]
USA). […] The pictures were acquired using a Leica SP8 confocal laser scanning microscope and analyzed by ImageJ. […]

SMILES	MIF degradation [1]	degradation [%] 2 μM ([2]; 12 h)	DC50 ([2]; 12 h, ELISA, read-out: DC50) [nM]	Hook effect ([2]; at 20 μM, ELISA and western-blot)	MIF depletion in situ [3]
O=C1CCC(N2C(=O)c3cccc(NCCCCCCCC(=O)Nc4ccc(N5Cc6ccc(O)cc6OC5=O)cc4)c3C2=O)C(=O)N1 (stereo not drawn) [MD13]	more than 90%	91% and 91±5%	~200	Hook effect	significantly depleted MIF
CN1C(=O)CCC(N2C(=O)c3cccc(NCCCCCCCC(=O)Nc4ccc(N5Cc6ccc(O)cc6OC5=O)cc4)c3C2=O)C1=O (stereo not drawn) [MD15]	–	not capable of inducing MIF degradation and n.s.	–	–	–

From article PMC8362126, “Proteolysis Targeting Chimera (PROTAC) for Macrophage Migration Inhibitory Factor (MIF) Has Anti‐Proliferative Activity in Lung Cancer Cells” (Angewandte Chemie (International Ed. in English), 2021)
